Results taken from patent US20050038022A1, “Method for treatment of cancer and compositions for use therein” (Unisearch Limited, priority 2001, published 2005).

Columns and labels:
PC3, LNCap and Du 145 = assay: Albendazole/ABS proliferation test, prostate cancer cells; format: cell-based, human; conditions: 3 human prostate cell lines
Protocol: In order to be able to test ABS, a proper solvent had to be found. […] Therefore to allow direct comparison between the 2 compounds, all subsequent experiments were run using 0.5% DMSO for both ABS and albendazole. In the cell lines examined, albendazole produced very similar results to what we had previously reported for the drug in liver cancer cells.
Both albendazole and ABS were tested side by side against various cell lines as follows: • Liver—HepGZ Hep3B, SKHEP-1 • Colorectal—170, LOVO, HT-29 • Prostate—PC3, LNCap, Du145 • Leukeamic—HL60
Cells were treated with various concentrations of each compound for a period of 5 days.

[1] = tested on: ovarian cancer cells (NIH:OVCAR-3); assay: DNA laddering (apoptosis), ovarian cancer cells; format: cell-based, human
Protocol: To find out the way albendazole works as an anticancer drug, a large variety of tests can be performed. One of the first is to see if albendazole induces apoptosis. This again is tested in several ways, one of the most common is to check for DNA laddering. […] This is the first time that the induction of apoptosis by albendazole has been reported.

SKHEP-1 [2] = assay: Combination with methimazole (MT), SKHEP-1 growth; format: cell-based; conditions: SKHEP-1, albendazole 0.25 μM, 5 days
Protocol: The effect of inhibition of metabolism of albendazole on its antiproliferative activity was investigated using […] and the methimazole as an inhibitor of albendazole
5000 cells each of HepG2 and S EP1 were plated into 24 wells plates and treated for 5 days with various concentrations of albendazole alone or together with MT.

[3] = tested on: SKHEP-1 subcutaneous tumor; assay: Tumor formation in nude mice; format: in vivo, BALB/c Nu/Nu mice; conditions: for maximum proliferation index (MPI), Ki-67: mean±s.e.m.
Protocol: 6 to 10 weeks old male BALB/c Nu/Nu mice (Animal Resources Center, Perth, Australia) were inoculated subcutaneously with 10^6 SKHEP-1 cells into the right flank. 24 hours after inoculation animals were randomly assigned to one of the treatment groups (n=10 per group), receiving 25, 50 or 150 mg/kg twice daily oral albendazole suspended in sesame oil for 20 days.
The control group was treated with the vehicle (sesame oil). Using vernier calipers, tumor diameter (mm) was measured on day eight and then every three days up to day 20-post tumor cell inoculation. Tumor volumes were calculated using the formula: ab^2/2 where a and b are the […] diameters in millimeters, respectively and a piece of the tumor was preserved in paraffin for immunohistochemical determination of maximum proliferation index (MPI). Here, after fixation, the specimen was processed for the detection of Ki-67 antigen with the monoclonal antibody MIB1 according to the method described by McCormick.
The animal model was chosen on the basis of SKHEP-1 being the most tumorigenic human liver cancer cell line in nude mice and previous experience with the model.

SKHEP-1 [4] = assay: [3H]thymidine incorporation assay, SKHEP-1; format: cell-based, human
Protocol: (§1) HepG2, Hep3-B, Hep1-6, SKHEP-1, PLC/PRF/5, and HTC cells were obtained from European Collection of Cell Cultures (ECACC; U.K), Novikoff was obtained from Cancer Research Centre (DKFZ) Heidelberg, Germany. Cells were cultured in MEM or DMEM supplemented with 10% FBS, 50 units/ml penicillin, 50 units/ml streptomycin, 25 μg/ml amphotericin B (Gibco, Grand Island, N.Y.) and maintained subconfluent at 37° C. in humidified incubators containing 5% CO2. Albendazole (Sigma, Australian subsidiary) was dissolved in absolute ethanol at concentrations that were 1000-fold higher than the final medium concentration.

[5] = at all times after a 400 mg oral dose; cited from earlier work
SKHEP-1 cells = assay: Cell counts (trypan blue exclusion); format: cell-based, human
Protocol: SKHEP-1 cells (2.5×10^4) were plated in six well plates. The cell treatment procedure was as described for the thymidine assay. At the end of the treatment period (1, 3 or 5 days), cells were trypsinized and counted with a hemocytometer using the trypan blue exclusion method. In all experiments, cells treated with the medium containing 0.1% ethanol were taken as the control for albendazole treated cells. All counts were obtained in quadruplicate and each experiment was repeated at least twice.

[6] = tested on: liver (HepG2, Hep3B, PLC/PRF/5, SKHEP-1, Hep1-6, HTC, Novikoff) and colorectal cancer (C-170, HT-29 and LOVO) cell lines; assay: [3H]thymidine incorporation, liver and colorectal cancer cell lines (summary); format: cell-based, human and animal; conditions: liver or colorectal cancer cells
Source text: The present inventors tested BZs and particularly albendazole against a range of liver (HepG2, Hep3B, PLC/PRF/5, SKHEP-1, Hep1-6, HTC, Novikoff) and colorectal cancer (C-170, HT-29 and LOVO) cell lines.

NIH:OVCAR-3 = assay: Cell count, ovarian cancer cell line; format: cell-based, human; conditions: OVCAR-3, 0.1 and 1 micromoles/L, evident from day 1
Protocol: Cells were treated with either the medium alone (control) or 0.1 and 1 micromoles/L of albendazole for 0, 1, 3, 6 or 10 days and the number of viable cells counted. […] This was evident from day 1 after the treatment

PLC/PRF/5 = assay: [3H]thymidine incorporation assay, PLC/PRF/5; format: cell-based, human; conditions: 5 days
Protocol: as §1

Hep3-B = assay: [3H]thymidine incorporation assay, Hep3-B; format: cell-based, human; conditions: 5 days
Protocol: as §1

LOVO cells = assay: DNA laddering (apoptosis), LOVO; format: cell-based, human; conditions: 1 μM, 16 hours
Source text: Similar results were also obtained with the human colorectal cell line LOVO.

In the case of `CCCSc1ccc2nc(NC(=O)OC)[nH]c2c1` [albendazole, methyl 5-propylthio-1H-benzimidazole-2-yl carbamate], the “sensitivity of prostate cell lines in culture” value (PC3, LNCap and Du 145) is reported as “quite sensitive”, the “DNA laddering (apoptosis)” value [1] is reported as “induction of DNA laddering” and the growth inhibition (SKHEP-1 [2]) is reported as “profoundly inhibited”. For the same compound, the “maximum proliferation index (MPI), Ki-67” value ([3]; 50 mg/kg dose) was 22.54±1.53, the “maximum proliferation index (MPI), Ki-67” value ([3]; 150 mg/kg dose) was 13.36±3.04 and the mean tumor volume ([3]; 300 mg/kg dose oral in sesame oil, 20 days post inoculation, p<0.001) was 12.0±7.8 mm^3. The tumor growth ([3]; 50 and 150 mg/kg per day oral) was “slightly but not significantly retarded”, the inhibition at 1 µM (SKHEP-1 [4]; Homo sapiens, SK-HEP1, 120 h, SKHEP-1, 1000 nM albendazole, 5 days) was 99.4% and the “thymidine incorporation after 1 day exposure” value (SKHEP-1 [4]; SKHEP-1, 1 day, concentrations of 250 nM and over (FIG. 1a)) was “profound inhibition of thymidine incorporation”. The “[3H]thymidine incorporation” value (SKHEP-1 [4]; SKHEP-1, albendazole 10 nM, 5 days) was 89.6 ± 6.1 % control, the “[3H]thymidine incorporation” value (SKHEP-1 [4]; SKHEP-1, albendazole 100 nM, 5 days) was 63.7 ± 3.1 % control and the “[3H]thymidine incorporation” value (SKHEP-1 [4]; SKHEP-1, albendazole 500 nM, 5 days) was 4.5 ± 1.1 % control. For the same compound, the “concentration of the unchanged drug” value [5] was “below the detection limits”, the “number of viable cells compared to control” value (SKHEP-1 cells; SKHEP-1, 1000 nM, p<0.001) was “significantly reduced in number” and the “number of viable cells” value (SKHEP-1 cells; SKHEP-1, 1, 3 or 5 days, 100, 500 or 1000 nM (FIG. 2)) was “dose dependent decline in the number of cells”. For the same compound, the “concentration at which inhibitory activity starts” value [6] was “around 0.1 micromoles/L”, the “number of viable cells” value (NIH:OVCAR-3) was “profound reduction in cell number” and the “[3H]thymidine incorporation” value (PLC/PRF/5; PLC/PRF/5, albendazole 10 nM) was 92.7 ± 4.7 % control. The “[3H]thymidine incorporation” value (PLC/PRF/5; PLC/PRF/5, albendazole 100 nM) was 69.4 ± 5.2 % control, the “[3H]thymidine incorporation” value (PLC/PRF/5; PLC/PRF/5, albendazole 500 nM) was 26.9 ± 2.7 % control and the “[3H]thymidine incorporation” value (PLC/PRF/5; PLC/PRF/5, albendazole 1000 nM) was 18.4 ± 2.1 % control. For the same compound, the “[3H]thymidine incorporation” value (Hep3-B; albendazole 10 nM) was 105.7 ± 8.6 % control, the “[3H]thymidine incorporation” value (Hep3-B; albendazole 100 nM) was 68.5 ± 5.7 % control and the “[3H]thymidine incorporation” value (Hep3-B; albendazole 500 nM) was 22.6 ± 1.8 % control. The “[3H]thymidine incorporation” value (Hep3-B; albendazole 1000 nM) was 9.3 ± 0.7 % control and the “DNA laddering (apoptosis)” value (LOVO cells) was “clear laddering”.
